{"source": "patent US6383773B2", "about": "“Penicillin conversion” (Massachusetts Institute of Technology, priority 1998, dated 2002)", "test_system": "resting S. clavuligerus NP1 cells", "assay": "Penicillin G ring expansion by resting cells grown on alcohol (Example 3)", "format": "cell-based", "conditions": "3 hours of reaction, 5.6 mM penicillin G; for Cephalosporin Production Specific: per mg DCW", "protocol": "Microorganisms, Media, and Culture Conditions: All experiments were done using S. clavuligerus NP1. Seed cultures were developed using 250 ml baffled flasks containing 40 ml of MST medium: 1% soluble starch (Sigma Chemical Co., St. Louis, Mo.); 3% Trypticase Soy Broth Without Dextrose (BBL, Cockeysville, Md.); 90 mM MOPS buffer, pH adjusted to 7.0 before autoclaving. Each flask was inoculated with 50 μl of a spore suspension (stored in 20% glycerol at −80° C.) and incubated at 30° C., 250 rpm for 48 h.\nFrom a seed culture, 4 ml were transferred to 500 ml baffled flasks containing 80 ml of MT medium (3% Trypticase Soy Broth Without Dextrose; 90 mM MOPS buffer, pH adjusted to 7.0 before autoclaving) with or without 1-2% ethanol or methanol. Alcohols were added just before inoculation. Cells were grown at 30° C., 250 rpm for 24 h. Mycelia from each flask were washed twice and, finally, resuspended in 10 ml of distilled water. Four ml of this cell suspension were used in the ring-expanding biotransformation.\nRing Expansion: The ring expansion mixture contained 1.8 mM FeSO4, 1.28 mM α-ketoglutarate, 4 ml cell suspension, 5.6 mM penicillin G and 50 mM MOPS (pH 6.5) in a final volume of 10 ml contained in 250 ml baffled Erlenmeyer flasks. Additions were made in the order established by Shen et al. (Shen et al., Enzyme Microb. Technol. 17:231-234, 1984). Incubation was at 220 rpm and 30° C. for 1 to 3 h. Samples were collected and centrifuged. Biotransformation activity was detected by paper disc-agar diffusion bioassay.\nDetection of Expandase Activity: Expandase activity was detected by paper disc-agar diffusion bioassay. Two superimposed paper discs (¼ inch; Schleicher & Schuell, Keene, N.H.) were saturated with 100 μl of each supernatant or standard. After each application, the discs were allowed to dry for 30 min in a laminar hood and then placed on Petri plates containing 10 ml of LB (1% tryptone, 0.5% NaCl, 0.5% yeast extract, 0.1% glucose) 0.8% agar medium containing 50,000 IU/ml of penicillinase (Difco Bacto penase concentrate, Difco Laboratories, Detroit, Mich.) seeded with E. coli ESS (a β-lactam-supersensitive mutant). The plates were incubated overnight at 37° C. The penicillinase used is a narrow spectrum β-lactamase that destroys the substrate penicillin G but not cephalosporins. The diameters of zones of growth inhibition were measured and quantified with calibration curves using pure DAOG as standard.\nDry Cell Weight (DCW) Assay: Two samples of 1 ml were taken from each cell suspension prepared in distilled water (10 ml), centrifuged (14,000×g, 10 min) and dried to constant weight at 65° C. The weights listed are those in the reaction mixture.", "key": {"[1]": {"conditions": "cells grown in MT + 1% E (ethanol)"}, "[2]": {"conditions": "cells grown in MT + 1% M (methanol)"}, "[3]": {"conditions": "cells grown in MT + 2% E (ethanol)"}, "[4]": {"conditions": "cells grown in MT + 2% M (methanol)"}}, "data": [{"smiles": "CC1(C)S[C@@H]2[C@H](NC(=O)Cc3ccccc3)C(=O)N2[C@H]1C(=O)O", "note": "[Penicillin G, penicillin G]", "values": [{"measurement": "Cephalosporin Production Volumetric", "setting": "[1]", "value": 12.3, "unit": "µg/mL"}, {"measurement": "Cephalosporin Production Specific", "setting": "[1]", "value": 3.6, "unit": "µg/mg"}, {"measurement": "Cephalosporin Production Volumetric", "setting": "[2]", "value": 5.2, "unit": "µg/mL"}, {"measurement": "Cephalosporin Production Specific", "setting": "[2]", "value": 1.7, "unit": "µg/mg"}, {"measurement": "Cephalosporin Production Volumetric", "setting": "[3]", "value": 6.3, "unit": "µg/mL"}, {"measurement": "Cephalosporin Production Specific", "setting": "[3]", "value": 7.0, "unit": "µg/mg"}, {"measurement": "Cephalosporin Production Volumetric", "setting": "[4]", "value": 4.3, "unit": "µg/mL"}, {"measurement": "Cephalosporin Production Specific", "setting": "[4]", "value": 1.5, "unit": "µg/mg"}, {"measurement": "Cephalosporin Production Volumetric", "setting": "cells grown in MT", "value": 5.3, "unit": "µg/mL"}, {"measurement": "Cephalosporin Production Specific", "setting": "cells grown in MT", "value": 1.5, "unit": "µg/mg"}]}]}
